Results: ChEMBL document CHEMBL1201862, “PubChem BioAssay data set” (2004)
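Briefly, cells in 96-well plates were exposed to five compound concentrations for 48 h, and endpoints were estimated by linear interpolation. Here, GI50 denotes the concentration required for 50% inhibition of growth.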 Activity calls are given as the source filed them. Cut-off read from the data, not from the text of the source: active = GI50 up to about 1.1 µM and inactive = higher.

What was measured:
Assay in all cases: NCI tumour cell line growth inhibition, 48 h
SK-OV-3 = test system: SK-OV-3
OVCAR-4 = test system: OVCAR-4
SK-MEL-28 = test system: SK-MEL-28
ACHN = test system: ACHN
CAKI-1 = test system: CAKI-1
UACC-62 = test system: UACC-62
RPMI-8226 = test system: RPMI-8226
UACC-257 = test system: UACC-257
CCRF-CEM = test system: CCRF-CEM
SF-295 = test system: SF-295
A549 = test system: A549
EKVX = test system: EKVX
M14 = test system: M14
OVCAR-3 = test system: OVCAR-3
MDA-MB-435 = test system: MDA-MB-435
BT-549 = test system: BT-549
SK-MEL-2 = test system: SK-MEL-2
HCT-116 = test system: HCT-116
SW-620 = test system: SW-620
COLO 205 = test system: COLO 205
PC-3 = test system: PC-3
UO-31 = test system: UO-31
HCT-15 = test system: HCT-15
HCC 2998 = test system: HCC 2998
DU-145 = test system: DU-145
786-0 = test system: 786-0
K562 = test system: K562
U-251 = test system: U-251
OVCAR-8 = test system: OVCAR-8
SNB-75 = test system: SNB-75
TK-10 = test system: TK-10
Hs-578T = test system: Hs-578T
MOLT-4 = test system: MOLT-4
RXF 393 = test system: RXF 393
IGROV-1 = test system: IGROV-1
OVCAR-5 = test system: OVCAR-5
HOP-92 = test system: HOP-92
A498 = test system: A498
SNB-19 = test system: SNB-19
T47D = test system: T47D
SN12C = test system: SN12C
MDA-MB-231 = test system: MDA-MB-231
LOX IMVI = test system: LOX IMVI
NCI-H522 = test system: NCI-H522
Malme-3M = test system: Malme-3M
HT-29 = test system: HT-29
NCI/ADR-RES = test system: NCI/ADR-RES
SF-268 = test system: SF-268
MDA-N = test system: MDA-N
HOP-62 = test system: HOP-62
SR = test system: SR
MCF7 = test system: MCF7
KM12 = test system: KM12
NCI-H460 = test system: NCI-H460
SK-MEL-5 = test system: SK-MEL-5
NCI-H23 = test system: NCI-H23
NCI-H226 = test system: NCI-H226
SF-539 = test system: SF-539
HL-60 = test system: HL-60

Measured: GI50

COc1cc2c[n+](C)c3c4cc(OC)c(OC)cc4ccc3c2cc1OC
> 100 µM: HCT-15
inactive: SK-OV-3 > 100 µM | OVCAR-4 55.3 µM | SK-MEL-28 > 100 µM | ACHN > 100 µM | CAKI-1 > 100 µM | UACC-62 > 100 µM | RPMI-8226 48 µM | UACC-257 > 100 µM | CCRF-CEM 35.3 µM | SF-295 > 100 µM | A549 > 100 µM | EKVX > 100 µM | M14 > 100 µM | OVCAR-3 29.1 µM | MDA-MB-435 > 100 µM | BT-549 32.1 µM | SK-MEL-2 > 100 µM | HCT-116 > 100 µM | SW-620 91.2 µM | COLO 205 15.8 µM | PC-3 72.9 µM | UO-31 > 100 µM | HCC 2998 > 100 µM | DU-145 25.4 µM | 786-0 > 100 µM | K562 26.1 µM

NCCCC[C@H](N)C(=O)Nc1ccc(-c2nc3ccccc3s2)cc1Cl
5.68 µM: HCT-15
inactive: U-251 2.65 µM | OVCAR-8 7.71 µM | SNB-75 9.77 µM | SK-OV-3 16.3 µM | SK-MEL-28 7.89 µM | ACHN 13.4 µM | Hs-578T 16.3 µM | MOLT-4 3 µM | CAKI-1 4.85 µM | UACC-62 14.6 µM | RXF 393 12.4 µM | HOP-92 18.8 µM | UACC-257 14.1 µM | CCRF-CEM 3.28 µM | SF-295 5 µM | SNB-19 12.6 µM | A549 2.96 µM | EKVX 5.6 µM | M14 3.55 µM | SN12C 14.6 µM | MDA-MB-231 11.6 µM | MDA-MB-435 4.9 µM | LOX IMVI 1.36 µM | NCI-H522 4.84 µM | SK-MEL-2 16.8 µM | Malme-3M 15.1 µM | HT-29 6.79 µM | NCI/ADR-RES 16.5 µM | SW-620 11.5 µM | SF-268 8.34 µM | COLO 205 4.91 µM | PC-3 14.9 µM | UO-31 6.35 µM | MDA-N 4.46 µM | HOP-62 13.2 µM | DU-145 6.78 µM | 786-0 3.05 µM | SR 2.36 µM | KM12 2.97 µM | K562 2.74 µM | SK-MEL-5 12.5 µM
active: TK-10 0.0353 µM | IGROV-1 < 0.01 µM | OVCAR-5 0.34 µM | A498 0.149 µM | T47D < 0.0478 µM | OVCAR-3 0.247 µM | HCT-116 0.713 µM | HCC 2998 0.681 µM | MCF7 < 0.034 µM | NCI-H460 0.271 µM

COC1=CC(=O)C(C2(OC(C)C)OC(=O)C(Cl)=C2Cl)=CC1=O (centres undefined)
active: HL-60 < 0.01 µM | SR 0.0115 µM | K562 < 0.01 µM
> 100 µM: HCT-15
inactive: OVCAR-8 24.9 µM | SNB-75 > 100 µM | TK-10 > 100 µM | SK-OV-3 > 100 µM | SK-MEL-28 > 100 µM | NCI-H23 > 100 µM | ACHN 51.4 µM | Hs-578T > 100 µM | CAKI-1 > 100 µM | UACC-62 > 100 µM | RXF 393 > 100 µM | OVCAR-5 > 100 µM | HOP-92 > 100 µM | RPMI-8226 > 100 µM | A498 > 100 µM | UACC-257 > 100 µM | CCRF-CEM 82.4 µM | SF-295 > 100 µM | SNB-19 > 100 µM | A549 > 100 µM | EKVX > 100 µM | M14 > 100 µM | T47D > 100 µM | SN12C > 100 µM | NCI-H226 > 100 µM | OVCAR-3 > 100 µM | MDA-MB-231 > 100 µM | MDA-MB-435 41.3 µM | LOX IMVI 64.1 µM | NCI-H522 25.8 µM | SK-MEL-2 29.4 µM | HCT-116 > 100 µM | Malme-3M > 100 µM | SF-539 > 100 µM | HT-29 > 100 µM | NCI/ADR-RES > 100 µM | SW-620 > 100 µM | SF-268 > 100 µM | COLO 205 > 100 µM | PC-3 > 100 µM | UO-31 74.5 µM | MDA-N 49.1 µM | HOP-62 > 100 µM | HCC 2998 > 100 µM | DU-145 > 100 µM | 786-0 28.9 µM | MCF7 > 100 µM | KM12 > 100 µM | NCI-H460 > 100 µM | SK-MEL-5 > 100 µM

C=CCNC(=O)NNC(O)(C(=O)OCC)C(F)(F)F (centres undefined)
inactive: U-251 > 100 µM | OVCAR-8 > 100 µM | SNB-75 > 100 µM | TK-10 > 100 µM | SK-OV-3 > 100 µM | OVCAR-4 > 100 µM | SK-MEL-28 > 100 µM | NCI-H23 > 100 µM | ACHN > 100 µM | Hs-578T > 100 µM | MOLT-4 > 100 µM | CAKI-1 > 100 µM | RXF 393 > 100 µM | IGROV-1 > 100 µM | OVCAR-5 > 100 µM | HOP-92 > 100 µM | RPMI-8226 > 100 µM | A498 > 100 µM | UACC-257 > 100 µM | CCRF-CEM > 100 µM | SNB-19 > 100 µM | A549 > 100 µM | EKVX > 100 µM | M14 > 100 µM | T47D > 100 µM | SN12C > 100 µM | NCI-H226 > 100 µM | OVCAR-3 > 100 µM | MDA-MB-231 > 100 µM | MDA-MB-435 > 100 µM | LOX IMVI > 100 µM | NCI-H522 > 100 µM | SK-MEL-2 > 100 µM | HCT-116 > 100 µM | Malme-3M > 100 µM | SF-539 > 100 µM | HT-29 > 100 µM | NCI/ADR-RES > 100 µM | SW-620 > 100 µM | SF-268 > 100 µM | COLO 205 > 100 µM | PC-3 > 100 µM | UO-31 > 100 µM | MDA-N > 100 µM | HOP-62 > 100 µM | HCC 2998 > 100 µM | DU-145 > 100 µM | HL-60 > 100 µM | 786-0 > 100 µM | SR > 100 µM | MCF7 > 100 µM | KM12 > 100 µM | K562 > 100 µM | NCI-H460 > 100 µM | SK-MEL-5 > 100 µM
> 100 µM: HCT-15
